Columns and labels:
Type in all cases: cell-based
[1] = system: Staphylococcus aureus IFO-12732; test: Antibacterial and antifungal activity, paper disc method; details: IFO12732, paper disc d=8 mm dipped in 1,000 µg/ml solution, TSA medium, read-out: diameter of the growth inhibition circle, Sta.(IFO-12732)
Procedure: (§1) Antibacterial and antifungal activity tests for various bacteria and fungi were conducted. The tests were carried out by the conventional paper disc method. That is, a paper disc (d=8 mm) was dipped in aqueous or methanol solution of the compound of the present invention (concentration : 1,000 µg/ml), then dried and used.
(§2) As bacteria to be tested, • ① Staphylococcus aureus IFO-12732 [hereinafter abbreviated to Sta.] • ② Bacillus subtilis IFO-13719 [Bac.] • ③ Escherichia coli IFO-3301 [Esc.] were used. As yeast to be tested, • ④ Saccharomyces cerevisiae IFO-0210 [Sac.] • ⑤ Candida albicans IFO-0583 [Can.] were used. As fungi to be tested, • ⑥ Aspergillus niger IFO-4407 [Asp.] • ⑦ Penicillium citrinum IFO-7784 [Pen.] • ⑧ Tyromyces palustris IFO-30339 [Tyr.] • ⑨ Coriolus versicolor IFO-30340 [Cor.] were used. Among the above fungi, Tyr. and Cor. are wood rot fungi.
(§3) As the test media, agar media shown below were used. That is, TSA (Trypticase Soy Agar) medium was used for Sta., Bac. and Esc.; YNB (Yeast Nitrogen Base) agar medium was used for Sac. and Can.; SDA (Sabouraud Dextrose Agar) medium was used for Asp. and Pen.; and PDA (Potato Dextrose Agar) medium was used for Try. and Cor.
(§4) The determination of antibacterial and antifungal effectiveness was carried out by measuring the diameter of the growth inhibition circle generated on the circumference of the paper disc. The indication of effectiveness is given as follows: -: no growth inhibition circle was observed. +: diameter of the growth inhibition circle was 9 - 20 mm ++: diameter of the growth inhibition circle was 21 - 40 mm +++: diameter of the growth inhibition circle was 41 mm or more

[2] = system: Coriolus versicolor IFO-30340; test: as above; details: Trametes versicolor, IFO30340; paper disc d=8 mm dipped in 1,000 µg/ml solution; PDA medium; read-out: diameter of the growth inhibition circle, Cor.(IFO-30340)
Procedure: as §1, §2, §3, §4

[3] = system: Tyromyces palustris IFO-30339; test: as above; details: paper disc d=8 mm dipped in 1,000 µg/ml solution; PDA medium; read-out: diameter of the growth inhibition circle, Tyr.(IFO-30339)
Procedure: as §1, §2, §3, §4

[4] = system: Penicillium citrinum IFO-7784; test: as above; details: IFO7784, paper disc d=8 mm dipped in 1,000 µg/ml solution, SDA medium, read-out: diameter of the growth inhibition circle, Pen.(IFO-7784)
Procedure: as §1, §2, §3, §4

[5] = system: Candida albicans IFO-0583; test: as above; details: IFO0583, paper disc d=8 mm dipped in 1,000 µg/ml solution, YNB agar medium, read-out: diameter of the growth inhibition circle, Can.(IFO-0583)
Procedure: as §1, §2, §3, §4

[6] = system: Aspergillus Niger (IFO 6341), Penicillium funiculosum (IFO 6345), Rhizopus javanicus (IFO 6354), Aureobasidium pullulans (IFO 6353), Gliocladium virens (IFO …); test: Fungicide activity for wood fungicide, sum of average ratings and damage value over the five fungi; details: for damage value: D = S₁ / S₀ × 100, untreated 100.0, lower = higher fungicide activity; for Sum (of average rating values A₁ to A₅): S = A₁ + A₂ + A₃ + A₄ + A₅, untreated 15.0; for wood fungicide activity (statement in words): summary of Table 3
Procedure: This test was conducted according to Specification No.2 of Japan Wood Preserving Association, enacted in 1979 and titled "Test methods of fungicide activity for wood fungicide".
• ① Aspergillus niger van Tieghem IFO 6341 = ATCC 6275 • ② Penicillium funiculosum Thom (formerly : Penicillium luteum Zukal) IFO 6345 = ATCC 9644 • ③ Rhizopus javanicus Takeda (formerly : Rhizopus nigricans Ehrenberg S.N. 32) IFO 6354 • ④ Aureobasidium pullulans (de Bary) Arnaud IFO 6353 = IAM (H. Iizuka, F-24) • ⑤ Gliocladium virens Miller, Gidden & Fosteb IFO 6355 = ATCC 9645 (formerly : Trichoderma viride, T.I.)
The fungi ① , ② , ③ and ⑤ are classified as fungi imperfecti, and the fungus ④ as blue stain fungus.
The Culture medium comprised the potato-sap agar culture medium (specified in the Japan Industrial Standard (JIS) Z 2911- 1960) of 50 ml, put in the conical flask of 100 ml, sterilized by steam at 1.4-1.6 kgf/cm² .G (137.2-156.8 KPa) for 30 minutes.
The fungi to be used were inoculated into the culture medium specified in the previous section and were cultured at 26 ± 2 °C under the relative humidity of 70-80 % for two weeks.
The potato sap of 50 ml, sterilized, cooled to room temperature and to which dioctyl sodium sulfosuccinate, a wetting agent, was added so as to become 0.005 %, was dropped to the fully breeding fungi layer, and was agitated with a platinum spatula in such a way that the spore was torn off. The resulting liquid filtered by sterilized gauze was the spore suspension.
3-5-1 A Petri dish measured 90-100 mm in diameter and 20 mm in height.
3-5-2 Agar liquid (which has no nutrients) of 2 % sterilized by steam was dropped onto the Petri dish sterilized by dry heat, and then was solidified.
3-5-3 Three mm diameter sterilized glass bars or plastic nets made of polypropylene, etc. were placed to prevent the test specimens from touching with agar directly.
3-6-1 The type of trees for wood specimens was beech. The cross section was of grain face, and the dimension was 20 mm wide 3 mm thick and 50 mm long.
3-6-2 Wood specimens were supplied with nutrients in such a way that they were dipped into the potato-sap (the one in the section 3-2, but agar was not added) for 3 minutes.
3-6-3 Nutrient-supplied wood specimens, after drying at 60 °C, were used for testing immediately. They were temporarily stored at 0 °C, but they were served to tests as soon as possible.
The test specimens were of two types, treated and untreated speciments. The treated specimens referred to the one treated with fungicide. The untreated specimens were of two types, the one really untreated and the other treated with solvent only.
3-7-2-1 Nutrients-supplied wood specimens were dried at 60 ± 2 °C, and then their weights (W₀) were measured. Test specimens of 10-20 pieces were piled up in a one liter beaker in such a way that two specimens constant space apart from each other were alternately put on the other two specimens also constant space apart from each other. On the top of the two specimens, a weight was placed. Through the test specimens thus arranged, the fungicide solution was introduced. The level of the fungicide solution was one centimeter above the top specimens. The test specimens were dipped for three minutes after the fungicide solution introduction.
After finishing dipping, the test specimens were wiped softly, and then the weights (W₁) were measured immediately. As control experiment, the same procedure as the above was done using solvent without fungicide.
3-7-2-2 The amounts of solution pick-up and fungicide pick-up were calculated with the following equations: The amount of solution absorption: RL = W₁ - W₀ [formula] The amount of fungicide absorption: Rc = RL × fungicide concentration [formula] 3-7-2-3 Wood specimens treated were placed without contacting each other, then were air-dried for two days, and then served as the treated test specimens. […]

Q: Which results are given for CC(C)(C)NC(=O)C#CI [Example 1, N-(tert-Butyl)-3-iodopropiolamide]?
A: zone of inhibition at 1000 µg/mL [1]: 9 to 20 mm; zone of inhibition at 1000 µg/mL [2]: > 41 mm; zone of inhibition at 1000 µg/mL [3]: > 41 mm; zone of inhibition at 1000 µg/mL [4]: > 41 mm; zone of inhibition at 1000 µg/mL [5]: 21 to 40 mm; damage value [6]: 13.3; Sum (of average rating values A₁ to A₅) [6]: 2.0; wood fungicide activity (statement in words) [6]: excellent wood fungicide activity

Q: CCCCCCCCCCNC(=O)C#CI [Example 2, N-(n-Decyl)-3-iodopropiolamide] was tested. Which zone of inhibition at 1000 µg/mL [1] did it give?
A: 9 to 20 mm

Q: What about the zone of inhibition at 1000 µg/mL [2] of the same compound?
A: 21 to 40 mm

Q: And the zone of inhibition at 1000 µg/mL [3]?
A: 9 to 20 mm

Q: And the zone of inhibition at 1000 µg/mL [4]?
A: 9 to 20 mm

Q: And the zone of inhibition at 1000 µg/mL [5]?
A: 9 to 20 mm

Q: And the damage value [6]?
A: 62.2

Q: And the “Sum (of average rating values A₁ to A₅)” value [6]?
A: 9.3

Q: Which zone of inhibition at 1000 µg/mL [1] does the source give for CCCCNC(=O)C#CI [Example 4, N-(n-Butyl)-3-iodopropiolamide] here?
A: 21 to 40 mm

Q: And the zone of inhibition at 1000 µg/mL [2]?
A: > 41 mm

Q: And the zone of inhibition at 1000 µg/mL [3]?
A: > 41 mm

Q: What about the zone of inhibition at 1000 µg/mL [4] of the same compound?
A: > 41 mm

Q: And the zone of inhibition at 1000 µg/mL [5]?
A: 21 to 40 mm

Q: What about the damage value [6] of the same compound?
A: 6.7

Q: And the “Sum (of average rating values A₁ to A₅)” value [6]?
A: 1.0

Q: And the “wood fungicide activity (statement in words)” value [6]?
A: excellent wood fungicide activity

Q: Which results are given for CCC(C)NC(=O)C#CI (stereo not drawn) [Example 5, N-(sec-Butyl)-3-iodopropiolamide]?
A: zone of inhibition at 1000 µg/mL [1]: 21 to 40 mm; zone of inhibition at 1000 µg/mL [2]: > 41 mm; zone of inhibition at 1000 µg/mL [3]: > 41 mm; zone of inhibition at 1000 µg/mL [4]: > 41 mm; zone of inhibition at 1000 µg/mL [5]: 21 to 40 mm; damage value [6]: 28.9; Sum (of average rating values A₁ to A₅) [6]: 4.3; wood fungicide activity (statement in words) [6]: excellent wood fungicide activity

Q: Which results are given for CC(C)CNC(=O)C#CI [Example 6, N-Isobutyl-3-iodopropiolamide]?
A: zone of inhibition at 1000 µg/mL [1]: 21 to 40 mm; zone of inhibition at 1000 µg/mL [2]: 21 to 40 mm; zone of inhibition at 1000 µg/mL [3]: > 41 mm; zone of inhibition at 1000 µg/mL [4]: 21 to 40 mm; zone of inhibition at 1000 µg/mL [5]: 21 to 40 mm; damage value [6]: 20.2; Sum (of average rating values A₁ to A₅) [6]: 3.0; wood fungicide activity (statement in words) [6]: excellent wood fungicide activity

Q: Which zone of inhibition at 1000 µg/mL [1] does the source give for CCCCCNC(=O)C#CI [Example 7, N-(n-Pentyl)-3-iodopropiolamide] here?
A: 21 to 40 mm

Q: And the zone of inhibition at 1000 µg/mL [2]?
A: > 41 mm

Q: And the zone of inhibition at 1000 µg/mL [3]?
A: > 41 mm

Q: And the zone of inhibition at 1000 µg/mL [4]?
A: > 41 mm

Q: And the zone of inhibition at 1000 µg/mL [5]?
A: 21 to 40 mm

Q: What about the damage value [6] of the same compound?
A: 34.4

Q: What about the “Sum (of average rating values A₁ to A₅)” value [6] of the same compound?
A: 5.2

Q: How did the zone of inhibition at 1000 µg/mL [1] turn out when CCCCCCNC(=O)C#CI [Example 8, N-(n-Hexyl)-3-iodopropiolamide] was run?
A: 21 to 40 mm

Q: And the zone of inhibition at 1000 µg/mL [2]?
A: > 41 mm

Q: What about the zone of inhibition at 1000 µg/mL [3] of the same compound?
A: > 41 mm

Q: What about the zone of inhibition at 1000 µg/mL [4] of the same compound?
A: > 41 mm

Q: What about the zone of inhibition at 1000 µg/mL [5] of the same compound?
A: 21 to 40 mm

Q: What about the damage value [6] of the same compound?
A: 23.3

Q: And the “Sum (of average rating values A₁ to A₅)” value [6]?
A: 3.5

Q: And the “wood fungicide activity (statement in words)” value [6]?
A: excellent wood fungicide activity

Q: What does the source list for CCCCCCCNC(=O)C#CI [Example 9, N-(n-Heptyl)-3-iodopropiolamide]?
A: zone of inhibition at 1000 µg/mL [1]: 9 to 20 mm; zone of inhibition at 1000 µg/mL [2]: > 41 mm; zone of inhibition at 1000 µg/mL [3]: > 41 mm; zone of inhibition at 1000 µg/mL [4]: > 41 mm; zone of inhibition at 1000 µg/mL [5]: 21 to 40 mm; damage value [6]: 50.0; Sum (of average rating values A₁ to A₅) [6]: 7.5

Q: For CCCCCCCCNC(=O)C#CI [Example 10, N-(n-Octyl)-3-iodopropiolamide], which zone of inhibition at 1000 µg/mL [1] is on record?
A: 9 to 20 mm

Q: What about the zone of inhibition at 1000 µg/mL [2] of the same compound?
A: > 41 mm

Q: What about the zone of inhibition at 1000 µg/mL [3] of the same compound?
A: 21 to 40 mm

Q: And the zone of inhibition at 1000 µg/mL [4]?
A: 21 to 40 mm

Q: And the zone of inhibition at 1000 µg/mL [5]?
A: 21 to 40 mm

Q: And the damage value [6]?
A: 54.4

Q: And the “Sum (of average rating values A₁ to A₅)” value [6]?
A: 8.2

Q: Which zone of inhibition at 1000 µg/mL [1] does the source give for CCCCCCCCCNC(=O)C#CI [Example 11, N-(n-Nonyl)-3-iodopropiolamide] here?
A: 9 to 20 mm

Q: What about the zone of inhibition at 1000 µg/mL [2] of the same compound?
A: > 41 mm

Q: What about the zone of inhibition at 1000 µg/mL [3] of the same compound?
A: 21 to 40 mm

Q: What about the zone of inhibition at 1000 µg/mL [4] of the same compound?
A: 21 to 40 mm

Q: What about the zone of inhibition at 1000 µg/mL [5] of the same compound?
A: 9 to 20 mm

Q: And the damage value [6]?
A: 82.2

Q: And the “Sum (of average rating values A₁ to A₅)” value [6]?
A: 12.3

Source: EP0519427A2, “N-substituted-3-iodopropiolamide, production and use thereof” (priority 1991, dated 1992)
